Holding throughout (experiment): biochemical
Set-up in all cases: KINOMEscan active-site competition binding panel (468 kinase assays), per cent of control at 1000 nM
Holding throughout (details): KINOMEscan per cent of control (binding competition); read-out: Percent Control

In one test the target is CDK7 (Homo sapiens, UniProt P50613). An excerpt: (§1) Figure S7 / Percent Control
The target in the next test is T1, NDR1 (Homo sapiens, UniProt Q15208).
T1 construct: gene STK38
Source text: as §1

The next test concerns the target KIT(V559D) (Homo sapiens, UniProt P10721, V559D).
Source text: as §1

In test [1] the target is T2, ABL1(F317I)-nonphosphorylated (Homo sapiens, UniProt P00519, F317I).
T2 construct: nonphosphorylated
T2 sequence (P00519 whole entry F317I): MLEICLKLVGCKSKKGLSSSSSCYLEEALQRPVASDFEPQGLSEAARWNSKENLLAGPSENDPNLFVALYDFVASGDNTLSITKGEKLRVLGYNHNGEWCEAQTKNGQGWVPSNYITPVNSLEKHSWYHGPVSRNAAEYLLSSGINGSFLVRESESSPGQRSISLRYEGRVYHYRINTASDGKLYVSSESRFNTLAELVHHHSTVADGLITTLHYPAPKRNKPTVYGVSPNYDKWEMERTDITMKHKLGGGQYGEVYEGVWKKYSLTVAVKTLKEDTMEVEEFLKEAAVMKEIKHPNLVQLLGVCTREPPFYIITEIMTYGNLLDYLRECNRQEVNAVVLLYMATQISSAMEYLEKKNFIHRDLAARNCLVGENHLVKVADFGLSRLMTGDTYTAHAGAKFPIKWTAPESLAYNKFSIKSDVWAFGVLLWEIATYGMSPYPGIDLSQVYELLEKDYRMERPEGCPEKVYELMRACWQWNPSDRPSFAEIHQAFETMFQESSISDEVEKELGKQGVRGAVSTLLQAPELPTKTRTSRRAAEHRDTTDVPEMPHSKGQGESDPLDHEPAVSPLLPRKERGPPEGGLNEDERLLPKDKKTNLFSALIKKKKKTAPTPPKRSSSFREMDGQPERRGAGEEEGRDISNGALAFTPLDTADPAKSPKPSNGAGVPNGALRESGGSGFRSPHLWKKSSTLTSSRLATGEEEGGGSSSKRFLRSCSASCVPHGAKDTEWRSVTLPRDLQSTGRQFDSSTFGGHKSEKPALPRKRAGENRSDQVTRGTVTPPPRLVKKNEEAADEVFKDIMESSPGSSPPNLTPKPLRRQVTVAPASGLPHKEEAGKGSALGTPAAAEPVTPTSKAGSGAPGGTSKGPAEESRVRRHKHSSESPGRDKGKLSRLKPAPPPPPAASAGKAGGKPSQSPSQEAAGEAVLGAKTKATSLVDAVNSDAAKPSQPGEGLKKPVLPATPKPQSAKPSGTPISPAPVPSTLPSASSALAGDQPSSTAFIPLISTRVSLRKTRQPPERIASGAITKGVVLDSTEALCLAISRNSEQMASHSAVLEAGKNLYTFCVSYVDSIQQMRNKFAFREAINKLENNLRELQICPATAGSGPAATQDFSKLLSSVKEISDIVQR
Source text: as §1

The next test has as its target BRAF(V600E) (Homo sapiens, UniProt P15056, V600E).
Source text: as §1

The target of a further test is T3, YSK1 (Homo sapiens, UniProt O00506).
T3 construct: gene STK25
Source text: as §1

The target of the next test is T4, ERK5 (Homo sapiens, UniProt Q13164).
T4 construct: gene MAPK7
Source text: as §1

In the next test the target is T5, TRKA (Homo sapiens, UniProt P04629).
T5 construct: gene NTRK1
Source text: as §1

For the next test, the target named is CDK4 (Homo sapiens, UniProt P11802).
Source text: as §1

The next test has as its target MARK4 (Homo sapiens, UniProt Q96L34).
Source text: as §1

For another test, the target named is MAP3K2 (Homo sapiens, UniProt Q9Y2U5).
MAP3K2, sequence (Q9Y2U5 whole entry): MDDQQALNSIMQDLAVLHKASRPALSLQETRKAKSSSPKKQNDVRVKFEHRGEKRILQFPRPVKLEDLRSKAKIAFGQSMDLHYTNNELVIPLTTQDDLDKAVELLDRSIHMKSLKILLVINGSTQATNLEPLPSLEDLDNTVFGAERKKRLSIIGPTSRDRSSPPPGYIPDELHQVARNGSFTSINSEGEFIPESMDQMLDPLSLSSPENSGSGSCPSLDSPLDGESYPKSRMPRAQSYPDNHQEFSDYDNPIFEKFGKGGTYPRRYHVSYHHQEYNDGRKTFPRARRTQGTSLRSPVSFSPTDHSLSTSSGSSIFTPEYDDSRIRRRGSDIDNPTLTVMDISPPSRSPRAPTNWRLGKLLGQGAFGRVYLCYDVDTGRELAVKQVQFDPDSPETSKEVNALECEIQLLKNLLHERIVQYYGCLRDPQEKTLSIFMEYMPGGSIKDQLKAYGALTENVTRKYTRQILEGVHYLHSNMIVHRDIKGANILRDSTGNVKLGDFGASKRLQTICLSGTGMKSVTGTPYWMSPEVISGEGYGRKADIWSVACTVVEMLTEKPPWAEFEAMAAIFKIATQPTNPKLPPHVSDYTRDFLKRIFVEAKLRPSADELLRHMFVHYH
Source text: as §1

The target in a further test is NEK3 (Homo sapiens, UniProt P51956).
Source text: as §1

The next test has as its target T6, MRCKA (Homo sapiens, UniProt Q5VT25).
T6 construct: gene CDC42BPA
Source text: as §1

In another test the target is T7, CAMK1B (Homo sapiens, UniProt Q6P2M8).
T7 construct: gene PNCK
Source text: as §1

In a further test the target is T8, MLCK (Homo sapiens, UniProt Q32MK0).
T8 construct: gene MYLK3
Source text: as §1

The target of a further test is FRK (Homo sapiens, UniProt P42685).
Source text: as §1

The next test concerns the target T9, PFTAIRE2 (Homo sapiens, UniProt Q96Q40).
T9 construct: gene CDK15
Source text: as §1

A further test concerns the target ROS1 (Homo sapiens, UniProt P08922).
Source text: as §1

The target in another test is MERTK (Homo sapiens, UniProt Q12866).
Source text: as §1

In the next test the target is T10, PFTK1 (Homo sapiens, UniProt O94921).
T10 construct: gene CDK14
Source text: as §1

In test [2] the target is T11, JAK2(JH1domain-catalytic) (Homo sapiens, UniProt O60674).
T11 construct: JH1domain-catalytic
Source text: as §1

A further test addresses MTOR (Homo sapiens, UniProt P42345).
Source text: as §1

In a further test the target is T12, MLK2 (Homo sapiens, UniProt Q02779).
T12 construct: gene MAP3K10
T12 sequence (Q02779 whole entry): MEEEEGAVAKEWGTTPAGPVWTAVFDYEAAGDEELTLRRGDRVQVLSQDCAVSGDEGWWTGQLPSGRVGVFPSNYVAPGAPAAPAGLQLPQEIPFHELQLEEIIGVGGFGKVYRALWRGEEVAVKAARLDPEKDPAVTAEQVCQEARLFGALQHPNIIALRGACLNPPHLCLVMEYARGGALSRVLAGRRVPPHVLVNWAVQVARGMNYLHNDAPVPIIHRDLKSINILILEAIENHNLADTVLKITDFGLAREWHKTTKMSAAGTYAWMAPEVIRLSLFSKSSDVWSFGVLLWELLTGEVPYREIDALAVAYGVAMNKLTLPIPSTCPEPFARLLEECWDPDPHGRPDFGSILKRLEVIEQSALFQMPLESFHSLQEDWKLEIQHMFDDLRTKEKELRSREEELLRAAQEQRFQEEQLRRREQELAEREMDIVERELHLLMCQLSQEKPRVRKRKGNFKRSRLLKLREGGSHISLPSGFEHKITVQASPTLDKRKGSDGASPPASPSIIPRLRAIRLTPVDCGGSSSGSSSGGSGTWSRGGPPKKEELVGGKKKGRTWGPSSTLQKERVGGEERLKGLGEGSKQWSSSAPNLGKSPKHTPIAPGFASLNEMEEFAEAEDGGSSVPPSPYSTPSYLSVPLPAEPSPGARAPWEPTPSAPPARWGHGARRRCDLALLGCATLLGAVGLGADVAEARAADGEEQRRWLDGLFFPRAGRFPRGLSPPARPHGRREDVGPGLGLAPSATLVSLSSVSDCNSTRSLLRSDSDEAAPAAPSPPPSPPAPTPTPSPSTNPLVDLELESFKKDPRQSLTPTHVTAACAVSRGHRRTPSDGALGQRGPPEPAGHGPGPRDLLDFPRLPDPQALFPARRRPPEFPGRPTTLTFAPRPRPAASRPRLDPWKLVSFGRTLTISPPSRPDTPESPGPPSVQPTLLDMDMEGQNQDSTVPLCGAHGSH
Source text: as §1

In another test the target is CDK5 (Homo sapiens, UniProt Q00535).
CDK5, sequence (Q00535 whole entry): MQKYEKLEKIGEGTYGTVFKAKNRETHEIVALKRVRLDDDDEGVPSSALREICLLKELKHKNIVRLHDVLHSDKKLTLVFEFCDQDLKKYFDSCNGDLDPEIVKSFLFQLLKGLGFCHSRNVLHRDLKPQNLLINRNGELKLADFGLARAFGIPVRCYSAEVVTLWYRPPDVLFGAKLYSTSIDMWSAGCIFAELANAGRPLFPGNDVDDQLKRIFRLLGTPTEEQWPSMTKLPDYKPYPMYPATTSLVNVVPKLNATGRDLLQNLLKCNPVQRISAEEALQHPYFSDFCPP
Source text: as §1

CDK7, sequence (P50613 whole entry): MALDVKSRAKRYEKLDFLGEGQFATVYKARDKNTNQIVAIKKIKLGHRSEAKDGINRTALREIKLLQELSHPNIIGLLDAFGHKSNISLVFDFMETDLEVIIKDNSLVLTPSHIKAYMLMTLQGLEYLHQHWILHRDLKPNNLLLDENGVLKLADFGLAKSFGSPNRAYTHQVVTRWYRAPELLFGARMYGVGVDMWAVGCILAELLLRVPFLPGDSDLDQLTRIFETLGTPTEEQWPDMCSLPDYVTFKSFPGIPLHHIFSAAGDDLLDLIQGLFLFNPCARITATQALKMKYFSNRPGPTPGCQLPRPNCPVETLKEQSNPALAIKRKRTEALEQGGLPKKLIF
KIT(V559D), sequence (P10721 whole entry V559D): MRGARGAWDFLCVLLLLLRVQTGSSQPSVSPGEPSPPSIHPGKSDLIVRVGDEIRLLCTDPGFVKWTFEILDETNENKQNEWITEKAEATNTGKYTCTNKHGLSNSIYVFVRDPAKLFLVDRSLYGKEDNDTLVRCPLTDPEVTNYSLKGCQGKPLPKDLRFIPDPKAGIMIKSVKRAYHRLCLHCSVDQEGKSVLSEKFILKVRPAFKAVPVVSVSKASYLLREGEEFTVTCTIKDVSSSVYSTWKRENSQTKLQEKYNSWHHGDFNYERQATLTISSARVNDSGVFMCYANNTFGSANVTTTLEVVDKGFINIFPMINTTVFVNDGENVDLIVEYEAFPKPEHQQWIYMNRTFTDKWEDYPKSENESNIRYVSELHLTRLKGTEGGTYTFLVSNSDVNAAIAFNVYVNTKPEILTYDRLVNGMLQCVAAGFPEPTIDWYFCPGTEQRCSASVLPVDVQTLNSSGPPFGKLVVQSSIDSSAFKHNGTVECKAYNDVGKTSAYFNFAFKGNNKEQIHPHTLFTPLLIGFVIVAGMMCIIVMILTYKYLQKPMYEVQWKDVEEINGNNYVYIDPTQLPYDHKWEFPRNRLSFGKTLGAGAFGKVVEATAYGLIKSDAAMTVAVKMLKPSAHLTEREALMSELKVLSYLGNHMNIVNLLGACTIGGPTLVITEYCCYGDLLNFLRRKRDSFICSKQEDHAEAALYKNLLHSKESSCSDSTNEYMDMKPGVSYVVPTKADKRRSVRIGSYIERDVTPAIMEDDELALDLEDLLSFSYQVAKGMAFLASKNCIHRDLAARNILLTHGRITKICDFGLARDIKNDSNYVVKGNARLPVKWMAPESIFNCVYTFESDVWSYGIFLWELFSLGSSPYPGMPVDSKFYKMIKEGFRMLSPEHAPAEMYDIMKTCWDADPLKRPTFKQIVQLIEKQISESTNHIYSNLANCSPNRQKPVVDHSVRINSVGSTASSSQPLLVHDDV
MARK4, sequence (Q96L34 whole entry): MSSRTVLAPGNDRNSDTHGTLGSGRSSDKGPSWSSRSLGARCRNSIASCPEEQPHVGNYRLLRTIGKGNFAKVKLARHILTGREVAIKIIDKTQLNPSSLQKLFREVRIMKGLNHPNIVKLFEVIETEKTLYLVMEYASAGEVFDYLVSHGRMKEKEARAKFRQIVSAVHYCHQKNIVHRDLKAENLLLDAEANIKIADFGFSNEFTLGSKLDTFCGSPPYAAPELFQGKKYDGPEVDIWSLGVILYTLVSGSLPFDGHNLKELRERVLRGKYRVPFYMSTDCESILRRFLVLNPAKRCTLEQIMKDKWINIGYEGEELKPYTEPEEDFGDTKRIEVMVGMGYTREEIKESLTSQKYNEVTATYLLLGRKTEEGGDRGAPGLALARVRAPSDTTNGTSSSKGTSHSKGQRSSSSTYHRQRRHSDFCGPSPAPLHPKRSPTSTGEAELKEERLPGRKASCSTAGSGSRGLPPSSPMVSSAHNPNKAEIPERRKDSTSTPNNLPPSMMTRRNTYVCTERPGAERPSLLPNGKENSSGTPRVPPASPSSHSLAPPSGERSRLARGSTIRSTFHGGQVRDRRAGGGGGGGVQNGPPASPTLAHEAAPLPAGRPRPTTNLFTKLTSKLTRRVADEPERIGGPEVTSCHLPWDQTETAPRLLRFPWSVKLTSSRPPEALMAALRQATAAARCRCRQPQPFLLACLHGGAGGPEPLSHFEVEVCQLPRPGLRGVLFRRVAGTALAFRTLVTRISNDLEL

`Cn1c(=O)[nH]c2ccc(-c3cccc(C(=O)NC4CCn5ccnc5C4)c3)cc21` (stereo not drawn) [Z36-MP5]: the remaining binding at 1 µM worked out at 42% at CDK7; 81% at NDR1; 90% on KIT(V559D); 85% in test [1]; 89% at BRAF(V600E); 98% at YSK1. In addition, the remaining binding at 1 µM on ERK5 was determined as 86%; at TRKA, 67%; at CDK4, 62%; at MARK4, 95%; on MAP3K2, 65%; at NEK3, 50%. Moreover, the remaining binding at 1 µM was 100% on MRCKA; 59% on CAMK1B; 91% on MLCK; 100% at FRK; 90% at PFTAIRE2; 51% on ROS1. Also, the remaining binding at 1 µM was 70% on MERTK; 98% at PFTK1; 74% in test [2]; 87% at MTOR; 95% at MLK2; 55% on CDK5.
